Reference: ChEMBL document CHEMBL1201862, “PubChem BioAssay data set” (2004)
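96-well plates; 48 h exposure; 5 concentrations. Endpoints by linear interpolation between flanking doses. Not reached: highest tested concentration assigned. GI50: concentration for 50% inhibition of growth.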 The source made the active and inactive calls. Cut-off read from the data, not from the text of the source: active = GI50 up to about 1.1 µM and inactive = higher.

Assays:
Test in all cases: DTP human tumour cell line panel, 48 h
PC-3 = system: PC-3
SF-268 = system: SF-268
RXF 393 = system: RXF 393
M14 = system: M14
Malme-3M = system: Malme-3M
HCT-15 = system: HCT-15
NCI-H522 = system: NCI-H522
Hs-578T = system: Hs-578T
EKVX = system: EKVX
COLO 205 = system: COLO 205
SNB-75 = system: SNB-75
HCC 2998 = system: HCC 2998
HT-29 = system: HT-29
ACHN = system: ACHN
SW-620 = system: SW-620
SK-MEL-28 = system: SK-MEL-28
NCI/ADR-RES = system: NCI/ADR-RES
UACC-62 = system: UACC-62
NCI-H460 = system: NCI-H460
SNB-19 = system: SNB-19
MDA-MB-435 = system: MDA-MB-435
SF-539 = system: SF-539
IGROV-1 = system: IGROV-1
HOP-92 = system: HOP-92
OVCAR-4 = system: OVCAR-4
SF-295 = system: SF-295
RPMI-8226 = system: RPMI-8226
786-0 = system: 786-0
NCI-H226 = system: NCI-H226
TK-10 = system: TK-10
OVCAR-8 = system: OVCAR-8
K562 = system: K562
MCF7 = system: MCF7
DU-145 = system: DU-145
A498 = system: A498
MOLT-4 = system: MOLT-4
UACC-257 = system: UACC-257
HL-60 = system: HL-60
A549 = system: A549
MDA-MB-231 = system: MDA-MB-231
OVCAR-3 = system: OVCAR-3
T47D = system: T47D
SN12C = system: SN12C
KM12 = system: KM12
CAKI-1 = system: CAKI-1
LOX IMVI = system: LOX IMVI
SR = system: SR
HOP-62 = system: HOP-62
CCRF-CEM = system: CCRF-CEM
NCI-H23 = system: NCI-H23
SK-OV-3 = system: SK-OV-3
HCT-116 = system: HCT-116
SK-MEL-5 = system: SK-MEL-5
U-251 = system: U-251
UO-31 = system: UO-31
BT-549 = system: BT-549
OVCAR-5 = system: OVCAR-5
MDA-N = system: MDA-N

Structure (SMILES): COc1cc(/C=N\O)nc(-c2ccccn2)c1
- GI50 (PC-3): 2.43 µM (inactive)
- GI50 (SF-268): 0.452 µM (active)
- GI50 (RXF 393): 0.363 µM (active)
- GI50 (M14): 0.259 µM (active)
- GI50 (Malme-3M): 0.741 µM (active)
- GI50 (HCT-15): 0.092 µM
- GI50 (NCI-H522): 0.129 µM (active)
- GI50 (Hs-578T): 47.2 µM (inactive)
- GI50 (EKVX): 0.195 µM (active)
- GI50 (COLO 205): 0.188 µM (active)
- GI50 (SNB-75): 1.28 µM (inactive)
- GI50 (HCC 2998): 46.8 µM (inactive)
- GI50 (HT-29): 0.569 µM (active)
- GI50 (ACHN): 0.0923 µM (active)
- GI50 (SW-620): 0.664 µM (active)
- GI50 (SK-MEL-28): 0.729 µM (active)
- GI50 (NCI/ADR-RES): 0.36 µM (active)
- GI50 (UACC-62): 0.448 µM (active)
- GI50 (NCI-H460): 0.227 µM (active)
- GI50 (SNB-19): 1.11 µM (active)
- GI50 (MDA-MB-435): 1.6 µM (inactive)
- GI50 (SF-539): 0.575 µM (active)
- GI50 (IGROV-1): 0.202 µM (active)
- GI50 (HOP-92): 1.44 µM (inactive)
- GI50 (OVCAR-4): 0.504 µM (active)
- GI50 (SF-295): 0.339 µM (active)
- GI50 (RPMI-8226): 0.337 µM (active)
- GI50 (786-0): 0.179 µM (active)
- GI50 (NCI-H226): 0.363 µM (active)
- GI50 (TK-10): > 30.8 µM (inactive)
- GI50 (OVCAR-8): 0.2 µM (active)
- GI50 (K562): 0.399 µM (active)
- GI50 (MCF7): 0.474 µM (active)
- GI50 (DU-145): 0.236 µM (active)
- GI50 (A498): 1.3 µM (inactive)
- GI50 (MOLT-4): 0.173 µM (active)
- GI50 (UACC-257): 2.4 µM (inactive)
- GI50 (HL-60): 0.124 µM (active)
- GI50 (A549): 0.344 µM (active)
- GI50 (MDA-MB-231): 1.05 µM (active)
- GI50 (OVCAR-3): 0.222 µM (active)
- GI50 (T47D): 1.18 µM (inactive)
- GI50 (SN12C): 0.264 µM (active)
- GI50 (KM12): 0.55 µM (active)
- GI50 (CAKI-1): 0.303 µM (active)
- GI50 (LOX IMVI): 0.221 µM (active)
- GI50 (SR): 0.0438 µM (active)
- GI50 (HOP-62): 0.137 µM (active)
- GI50 (CCRF-CEM): 0.175 µM (active)
- GI50 (NCI-H23): 0.51 µM (active)
- GI50 (SK-OV-3): 0.45 µM (active)
- GI50 (HCT-116): 0.301 µM (active)
- GI50 (SK-MEL-5): 0.298 µM (active)
- GI50 (U-251): 0.553 µM (active)
- GI50 (UO-31): 0.161 µM (active)
- GI50 (BT-549): 1.5 µM (inactive)
- GI50 (OVCAR-5): 3.08 µM (inactive)

Structure (SMILES): CCOC(=O)c1csc(-c2nc(CCNC(=O)c3ccccc3)sc2Cl)n1
- GI50 (PC-3): 32.1 µM (inactive)
- GI50 (SF-268): 60 µM (inactive)
- GI50 (RXF 393): > 100 µM (inactive)
- GI50 (M14): 58.5 µM (inactive)
- GI50 (Malme-3M): > 100 µM (inactive)
- GI50 (HCT-15): 51.3 µM
- GI50 (Hs-578T): > 100 µM (inactive)
- GI50 (EKVX): > 100 µM (inactive)
- GI50 (COLO 205): 77.3 µM (inactive)
- GI50 (SNB-75): 49.4 µM (inactive)
- GI50 (HCC 2998): > 100 µM (inactive)
- GI50 (HT-29): > 100 µM (inactive)
- GI50 (ACHN): > 100 µM (inactive)
- GI50 (SW-620): > 100 µM (inactive)
- GI50 (SK-MEL-28): 56.6 µM (inactive)
- GI50 (NCI/ADR-RES): 41.1 µM (inactive)
- GI50 (UACC-62): 59.3 µM (inactive)
- GI50 (NCI-H460): 34.4 µM (inactive)
- GI50 (SNB-19): > 100 µM (inactive)
- GI50 (MDA-MB-435): 62.7 µM (inactive)
- GI50 (SF-539): > 100 µM (inactive)
- GI50 (IGROV-1): > 100 µM (inactive)
- GI50 (HOP-92): 5.74 µM (inactive)
- GI50 (SF-295): > 100 µM (inactive)
- GI50 (RPMI-8226): 44 µM (inactive)
- GI50 (786-0): > 100 µM (inactive)
- GI50 (NCI-H226): > 100 µM (inactive)
- GI50 (TK-10): > 100 µM (inactive)
- GI50 (OVCAR-8): 45 µM (inactive)
- GI50 (MDA-N): > 100 µM (inactive)
- GI50 (K562): 37.1 µM (inactive)
- GI50 (MCF7): 67.6 µM (inactive)
- GI50 (DU-145): > 100 µM (inactive)
- GI50 (A498): 15.4 µM (inactive)
- GI50 (MOLT-4): 34.3 µM (inactive)
- GI50 (UACC-257): > 100 µM (inactive)
- GI50 (HL-60): 41.5 µM (inactive)
- GI50 (A549): > 100 µM (inactive)
- GI50 (OVCAR-3): 45.8 µM (inactive)
- GI50 (SN12C): > 100 µM (inactive)
- GI50 (KM12): 69.2 µM (inactive)
- GI50 (SR): 37.1 µM (inactive)
- GI50 (HOP-62): 55.7 µM (inactive)
- GI50 (CCRF-CEM): 30.5 µM (inactive)
- GI50 (NCI-H23): 40.9 µM (inactive)
- GI50 (SK-OV-3): > 100 µM (inactive)
- GI50 (HCT-116): 47 µM (inactive)
- GI50 (SK-MEL-5): 42.7 µM (inactive)
- GI50 (U-251): 73.8 µM (inactive)
- GI50 (UO-31): 61.2 µM (inactive)
- GI50 (BT-549): 32.7 µM (inactive)
- GI50 (OVCAR-5): > 100 µM (inactive)
